Measurements taken from ChEMBL document CHEMBL3286163, “The pterocarpanquinone LQB-118 inhibits tumor cell proliferation by downregulation of c-Myc and cyclins D1 and B1 mRNA and upregulation of p21 cell cycle inhibitor expression” (Bioorg Med Chem, 2014).
In brackets after ≈: the same amount, converted by molar mass. Activity calls are given as the source filed them. The rule behind the calls is not given here.

How the values were obtained:
[1] = system: Thymocyte; experiment: Induction of apoptosis in mouse thymocytes assessed as internucleosomal DNA fragmentation at 1 uM after 24 hrs by agarose gel electrophoresis; assay type: functional, cell-based
[2] = system: PC-3; experiment: Increase in p21 protein expression in human PC3 cells at 5 ug/ml after 48 hrs by flow cytometry; assay type: functional, cell-based
[3] = system: PC-3; experiment: Induction of apoptosis in human PC3 cells assessed as proportion of early apoptotic cells at 5 ug/ml after 48 hrs by annexin-V-FITC/propidium iodide staining based flow cytometry (reference value: 6.7 +/- 2%); assay type: functional
[4] = system: PC-3; experiment: Induction of apoptosis in human PC3 cells assessed as proportion of late apoptotic cells at 5 ug/ml after 48 hrs by annexin-V-FITC/propidium iodide staining based flow cytometry (reference value: 6.6 +/- 1.2%); assay type: functional
[5] = system: PC-3; experiment: Cytotoxicity against human PC3 cells assessed as inhibition of cell viability after 48 hrs by MTT assay; assay type: functional, cell-based; settings: for IC50: PC-3, 48 h
[6] = system: PC-3; experiment: Cell cycle arrest in human PC3 cells assessed as cell accumulation at S phase at 5 ug/ml after 48 hrs by propidium idoide staining based flow cytometry (reference value: 9.8%); assay type: functional
[7] = system: PC-3; experiment: Decrease in cyclin D1 mRNA expression in human PC3 cells after 48 hrs by RT-PCR analysis; assay type: functional
[8] = system: PC-3; experiment: Cell cycle arrest in human PC3 cells assessed as cell accumulation at G1 phase at 5 ug/ml after 48 hrs by propidium idoide staining based flow cytometry (reference value: 68%); assay type: functional
[9] = system: PC-3; experiment: Increase in p21 mRNA expression in human PC3 cells at 5 ug/ml after 24 to 48 hrs by RT-PCR analysis; assay type: functional, cell-based
[10] = system: PC-3; experiment: Cell cycle arrest in human PC3 cells assessed as cell accumulation at S phase at 1.7 ug/ml after 48 hrs by propidium idoide staining based flow cytometry (reference value: 9.8%); assay type: functional
[11] = system: PC-3; experiment: Increase in c-Myc mRNA expression in human PC3 cells after 48 hrs by RT-PCR analysis; assay type: functional
[12] = system: PC-3; experiment: Decrease in cyclin B1 mRNA expression in human PC3 cells after 48 hrs by RT-PCR analysis; assay type: functional
[13] = system: PC-3; experiment: Cell cycle arrest in human PC3 cells assessed as cell accumulation at G1 phase at 1.7 ug/ml after 48 hrs by propidium idoide staining based flow cytometry (reference value: 68%); assay type: functional
[14] = system: PC-3; experiment: Cell cycle arrest in human PC3 cells assessed as cell accumulation at G2/M phase at 1.7 ug/ml after 48 hrs by propidium idoide staining based flow cytometry (reference value: 22.2%); assay type: functional
[15] = system: PC-3; experiment: Induction of apoptosis in human PC3 cells assessed as proportion of early apoptotic cells at 1.7 ug/ml after 48 hrs by annexin-V-FITC/propidium iodide staining based flow cytometry (reference value: 6.7 +/- 2%); assay type: functional
[16] = system: PC-3; experiment: Induction of apoptosis in human PC3 cells assessed as internucleosomal DNA fragmentation at 5 ug/ml after 48 hrs by agarose gel electrophoresis; assay type: functional, cell-based
[17] = system: PC-3; experiment: Induction of apoptosis in human PC3 cells assessed as proportion of necrotic cells at 5 ug/ml after 48 hrs by annexin-V-FITC/propidium iodide staining based flow cytometry (reference value: 0.8 +/- 0.9%); assay type: functional
[18] = system: PC-3; experiment: Induction of apoptosis in human PC3 cells assessed as proportion of late apoptotic cells at 1.7 ug/ml after 48 hrs by annexin-V-FITC/propidium iodide staining based flow cytometry (reference value: 6.6 +/- 1.2%); assay type: functional
[19] = system: PC-3; experiment: Induction of apoptosis in human PC3 cells assessed as proportion of necrotic cells at 1.7 ug/ml after 48 hrs by annexin-V-FITC/propidium iodide staining based flow cytometry (reference value: 0.8 +/- 0.9%); assay type: functional
[20] = system: PC-3; experiment: Cell cycle arrest in human PC3 cells assessed as cell accumulation at G2/M phase at 5 ug/ml after 48 hrs by propidium idoide staining based flow cytometry (reference value: 22.2%); assay type: functional
[21] = Cytotoxicity against human RWPE1 cells assessed as inhibition of cell viability after 48 hrs by MTT assay; assay type: cell-based, RWPE-1; settings: for IC50: Homo sapiens, RWPE-1, 48 h
[22] = system: LNCaP; experiment: Cytotoxicity against human LNCAP cells assessed as inhibition of cell viability after 48 hrs by MTT assay; assay type: functional, cell-based
[23] = system: PC-3; experiment: Antiproliferative activity against human PC3 cells assessed as inhibition of cell growth at 5 ug/ml after 72 hrs by trypan blue dye exclusion assay; assay type: functional; settings: PC-3, 72 h, read-out: GI
[24] = Cytotoxicity against human RWPE1 cells assessed as inhibition of cell viability at 2.5 ug/ml after 48 hrs by MTT assay; assay type: cell-based; settings: rwpe-1, 48 h
[25] = system: PC-3; experiment: Antiproliferative activity against human PC3 cells assessed as inhibition of cell growth at 1.7 ug/ml after 24 hrs by trypan blue dye exclusion assay; assay type: functional; settings: PC-3, 24 h, read-out: GI
[26] = system: PC-3; experiment: Decrease in cyclin D1 mRNA expression in human PC3 cells after 24 hrs by RT-PCR analysis; assay type: functional
[27] = system: PC-3; experiment: Cytotoxicity against human PC3 cells assessed as inhibition of cell viability at 10 ug/ml after 48 hrs by MTT assay; assay type: functional; settings: PC-3, 48 h
[28] = system: PC-3; experiment: Cytotoxicity against human PC3 cells assessed as inhibition of cell viability at 1 ug/ml after 48 hrs by MTT assay; assay type: functional; settings: PC-3, 48 h
[29] = system: PC-3; experiment: Decrease in c-Myc mRNA expression in human PC3 cells after 48 hrs by RT-PCR analysis; assay type: functional
[30] = system: PC-3; experiment: Decrease in cyclin B1 mRNA expression in human PC3 cells after 24 hrs by RT-PCR analysis; assay type: functional
[31] = system: PC-3; experiment: Antiproliferative activity against human PC3 cells assessed as inhibition of cell growth at 5 ug/ml after 48 hrs by trypan blue dye exclusion assay; assay type: functional; settings: PC-3, 48 h, read-out: GI
[32] = system: PC-3; experiment: Antiproliferative activity against human PC3 cells assessed as inhibition of cell growth at 1.7 ug/ml after 72 hrs by trypan blue dye exclusion assay; assay type: functional; settings: PC-3, 72 h, read-out: GI
[33] = system: PC-3; experiment: Antiproliferative activity against human PC3 cells assessed as inhibition of cell growth at 5 ug/ml after 24 hrs by trypan blue dye exclusion assay; assay type: functional; settings: PC-3, 24 h, read-out: GI
[34] = system: PC-3; experiment: Increase in p21 protein expression in human PC3 cells at 5 ug/ml after 24 to 48 hrs by flow cytometry; assay type: functional, cell-based
[35] = system: PC-3; experiment: Antiproliferative activity against human PC3 cells assessed as inhibition of cell growth at 1.7 ug/ml after 48 hrs by trypan blue dye exclusion assay; assay type: functional; settings: PC-3, 48 h, read-out: GI

SMILES | Activity [3] | Activity [4] | IC50 [5] | Activity [6] | inhibition (INH) [7] | Activity [8] | Activity [9] | Activity [10] | inhibition (INH) [12] | Activity [13] | Activity [14] | Activity [15] | Activity [16] | Activity [17] | Activity [18] | Activity [19] | Activity [20] | IC50 [21] | IC50 [22] | other results
C[C@@H]1C[C@H]2[C@@H]3CCC4=CC(=O)C=C[C@]4(C)[C@@]3(F)[C@@H](O)C[C@]2(C)[C@@]1(O)C(=O)CO | – | – | – | – | – | – | – | – | – | – | – | – | – | – | – | – | – | – | – | Activity [1]: Active
CC(=O)O[C@H]1C(=O)[C@@]2(C)[C@H]([C@H](OC(=O)c3ccccc3)[C@]3(O)C[C@H](OC(=O)[C@H](O)[C@@H](NC(=O)c4ccccc4)c4ccccc4)C(C)=C1C3(C)C)[C@]1(OC(C)=O)CO[C@@H]1C[C@@H]2O [PACLITAXEL] | 18.1% | 18.4% | 2.9 µg/mL (≈ 3.4 µM) | 5.8% | 48% | 15% | Active | 13% | 44% | 25% | 62% | 21.1% | Active | 1.9% | 14.7% | 0.6% | 79.2% | 0.7 µg/mL (≈ 0.82 µM) | 1.7 µg/mL (≈ 1.99 µM) | Activity [2]: Active; Activity [11]: 39%
O=C1C2=C(C(=O)c3ccccc31)[C@H]1Oc3ccccc3[C@H]1CO2 [PTEROCARPANQUINONE] | 48.3% | 17.8% | 1.7 µg/mL (≈ 5.59 µM) | 22.5% | 59% | 34.1% | Active | 13.2% | 43% | 51.8% | 35% | 7.7% | Active | 1.6% | 5.7% | 0.6% | 43.4% | 1.3 µg/mL (≈ 4.27 µM) | 1.1 µg/mL (≈ 3.61 µM) | inhibition of growth at 5 µg/mL [23]: 93%; Activity [24]: Non-toxic; inhibition of growth at 1.7 µg/mL [25]: 60%; inhibition [5]: Dose-dependent effect; inhibition (INH) [26]: 27%; inhibition at 10 µg/mL [27]: 92.7%; inhibition at 1 µg/mL [28]: 12.8%; inhibition (INH) [29]: 60%; inhibition (INH) [30]: 58%; inhibition of growth at 5 µg/mL [31]: 88%; inhibition of growth at 1.7 µg/mL [32]: 60%; inhibition of growth at 5 µg/mL [33]: 78%; Activity [34]: Active; inhibition of growth at 1.7 µg/mL [35]: 68%; inhibition (INH) ([21]; human, rwpe-1, 48 h): Dose-dependent effect
